Assay results taken from patent US8673938B2, “Chemical compounds” (priority 2006, dated 2014).

target: human 11βHSD1 enzyme (Homo sapiens (Human), UniProt P28845); assay: biochemical; conditions: not given
Sequence (P28845 whole entry): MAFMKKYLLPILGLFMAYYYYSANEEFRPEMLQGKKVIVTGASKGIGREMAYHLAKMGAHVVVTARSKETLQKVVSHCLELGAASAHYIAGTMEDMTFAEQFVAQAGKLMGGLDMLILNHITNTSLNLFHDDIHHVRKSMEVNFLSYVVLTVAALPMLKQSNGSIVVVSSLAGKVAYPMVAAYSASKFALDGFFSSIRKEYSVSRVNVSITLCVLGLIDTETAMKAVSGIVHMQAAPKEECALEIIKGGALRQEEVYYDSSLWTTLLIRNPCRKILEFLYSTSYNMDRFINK

For `O=C(O)C[C@@H]1CCCN(c2ccc(C(=O)NC3CCCCC3)c(N3CCNCC3)n2)C1` [{(3S)-1-[5-(cyclohexylcarbamoyl)-6-(piperazin-1-yl)pyridin-2-yl]piperidin-3-yl}acetic acid], the IC50 was > 30 µM.

same assay, conditions: read-out: % inhibition of human 11-βHSD

First: O=C(O)C[C@@H]1CCCN(c2ccc(C(=O)NC3CCCCC3)c(OCCc3ccc(F)cc3)n2)C1 [compound 135, 2-[(3S)-1-[5-(cyclohexyl-carbamoyl)-6-[2-(4-fluorophenyl)ethoxy]pyridin-2-yl]-3-piperidyl] acetic acid]
Second: O=C(O)C[C@@H]1CCCN(c2ccc(C(=O)NC3CCCCC3)c(OCCc3cccnc3)n2)C1 [compound 138, 2-[(3S)-1-[5-(cyclohexyl-carbamoyl)-6-(2-pyridin-3-ylethoxy)pyridin-2-yl]-3-piperidyl] acetic acid]
The inhibition at 30 µM of the first is lower: 92% for the first, 98% for the second.

First: CCCSc1nc(N2CCC(C(=O)O)(C(C)C)CC2)ccc1C(=O)NC1CCCCC1 [Example 35, 4-[5-(cyclohexylcarbamoyl)-6-propylsulfanyl-pyridin-2-yl]-4-propan-2-yl-piperidine-4-carboxylic acid]
Second: CCCSc1nc(N2CCC(C(C)(C)C(=O)O)CC2)ccc1C(=O)NC1CCCCC1 [Example 48, 2-[1-[5-(cyclohexylcarbamoyl)-6-propylsulfanyl-pyridin-2-yl]-4-piperidyl]-2-methyl-propanoic acid]
The inhibition at 30 µM of the first is higher: 93% for the first, 75% for the second.

First: O=C(O)C[C@@H]1CCCN(c2ccc(C(=O)NC3CCCCC3)c(SCCc3cccnc3)n2)C1 [compound 131, 2-[(3S)-1-[5-(cyclohexyl-carbamoyl)-6-(2-pyridin-3-ylethylsulfanyl)pyridin-2-yl]-3-piperidyl] acetic acid]
Second: O=C(O)C[C@@H]1CCCN(c2ccc(C(=O)NC3CCCCC3)c(OCCCc3ccccc3)n2)C1 [compound 137, 2-[(3S)-1-[5-(cyclohexyl-carbamoyl)-6-(3-phenylpropoxy)pyridin-2-yl]-3-piperidyl] acetic acid]
The inhibition at 30 µM of the first is lower: 91% for the first, 99% for the second.

Compared with `O=C(N[C@H]1C2CC3CC1C[C@](O)(C3)C2)c1ccc(N2CC[C@@H](C(=O)O)C2)nc1SC1CCCCC1` [Example 102, (3R)-1-[6-cyclohexylsulfanyl-5-[((2r,5s)-5-hydroxy-2-adamantyl)carbamoyl]pyridin-2-yl]pyrrolidine-3-carboxylic acid], `O=C(N[C@H]1C2CC3CC1C[C@](O)(C3)C2)c1ccc(N2CC[C@@H](C(=O)O)C2)nc1SC1CCCC1` [Example 96, (3R)-1-[6-cyclopentylsulfanyl-5-[((2r,5s)-5-hydroxy-2-adamantyl)carbamoyl]pyridin-2-yl]pyrrolidine-3-carboxylic acid] is lower in inhibition at 30 µM: 89% for the first, 88% for the second.

First: CCCSc1nc(N2CCC[C@H](CC(=O)O)C2)ccc1C(=O)N(C)C1CCCCC1 [Example 168, 2-[(3R)-1-[5-(Cyclohexyl-methyl-carbamoyl)-6-propylsulfanyl-pyridin-2-yl]-3-piperidyl]acetic acid]
Second: CCCSc1nc(N2CCC[C@@H](CC(=O)O)C2)ccc1C(=O)N(CC)C1CCCCC1 [Example 123, 2-[(3S)-1-[5-(cyclohexyl-ethyl-carbamoyl)-6-propylsulfanyl-pyridin-2-yl]-3-piperidyl]acetic acid]
The inhibition at 30 µM of the first is higher: 108% for the first, 94% for the second.

Going from `CCCSc1nc(Oc2ccc(C(=O)O)cc2)ccc1C(=O)NC1CCCCC1` [Example 16, 4-[5-(cyclohexylcarbamoyl)-6-propylsulfanyl-pyridin-2-yl]oxybenzoic acid] to `CCCSc1nc(Oc2cccc(CC(=O)O)c2)ccc1C(=O)NC1CCCCC1` [Example 23, 2-[3-[5-(cyclohexylcarbamoyl)-6-propylsulfanyl-pyridin-2-yl]oxyphenyl]acetic acid], the inhibition at 30 µM rises from 43% to 78%.

Going from `CCCSc1nc(N2CCC[C@@H](CC(=O)O)C2)ccc1C(=O)N[C@H]1C2CC3CC1C[C@](OC(F)F)(C3)C2` [Example 179, 2-[(3S)-1-[5-[[(2r,5s)-5-(Difluoromethoxy)-2-adamantyl]carbamoyl]-6-propylsulfanyl-pyridin-2-yl]-3-piperidyl]acetic acid] to `CCCSc1nc(N2CCC[C@@H](CC(=O)O)C2)ccc1C(=O)N[C@H]1C2CC3CC1C[C@@](S(C)(=O)=O)(C3)C2` [Example 126b, 2-[(3S)-1-[5-[((2r,5s)-5-methylsulfonyl-2-adamantyl)carbamoyl]-6-propylsulfanyl-pyridin-2-yl]-3-piperidyl]acetic acid], the inhibition at 30 µM rises from 87% to 99%.

First: CCCSc1nc(N[C@H]2C3CC4CC2C[C@@](C(=O)O)(C4)C3)ccc1C(=O)NC1CCCCC1 [Example 10, (3R,5S)-4-[[5-(cyclohexylcarbamoyl)-6-propylsulfanyl-pyridin-2-yl]amino]adamantane-1-carboxylic acid]
Second: CCCSc1nc(N2CCC(C(=O)O)C(C)C2)ccc1C(=O)NC1CCCCC1 (centres unmarked) [Example 36]
The inhibition at 30 µM of the first is lower: 88% for the first, 89% for the second.

First: CCCSc1nc(N2CCC[C@@H](CC(=O)O)C2)ccc1C(=O)NC1C2CC3CC(C2)CC1C3 (stereo partly drawn) [Example 59, 2-[(3S)-1-[5-(2-adamantylcarbamoyl)-6-propylsulfanyl-pyridin-2-yl]-3-piperidyl]acetic acid]
Second: CCCSc1nc(N2CC[C@H](C(=O)O)C2)ccc1C(=O)NC1C2CC3CC(C2)CC1C3 (stereo partly drawn) [Example 67, (3S)-1-[5-(2-adamantylcarbamoyl)-6-propylsulfanyl-pyridin-2-yl]pyrrolidine-3-carboxylic acid]
The inhibition at 30 µM of the first is higher: 94% for the first, 88% for the second.

Going from `O=C(O)CO[C@H]1CCN(c2ccc(C(=O)NC3C4CC5CC(C4)CC3C5)c(SC3CCCC3)n2)C1` (stereo partly drawn) [Example 69, 2-[(3S)-1-[5-(2-adamantylcarbamoyl)-6-cyclopentylsulfanyl-pyridin-2-yl]pyrrolidin-3-yl]oxyacetic acid] to `O=C(O)C[C@@H]1CCN(c2ccc(C(=O)NC3C4CC5CC3CC(O)(C5)C4)c(SC3CCCC3)n2)C1` (stereo partly drawn) [Example 93, 2-[(3S)-1-[6-cyclopentylsulfanyl-5-[((2r,5s)-5-hydroxy-2-adamantyl)carbamoyl]pyridin-2-yl]pyrrolidin-3-yl]acetic acid], the inhibition at 30 µM falls from 91% to 85%.

Going from `CCCSc1nc(N2CCC[C@@H](CC(=O)O)C2)ccc1C(=O)N(CC1CC1)C1CCCCC1` [Example 122, 2-[(3S)-1-[5-(cyclohexyl-(cyclopropylmethyl)carbamoyl)-6-propylsulfanyl-pyridin-2-yl]-3-piperidyl]acetic acid] to `CCCSc1nc(N2CCC[C@@H](CC(=O)O)C2)ccc1C(=O)N(C)C1CCOCC1` [Example 174, [(3S)-1-{5-[Methyl(tetrahydro-2H-pyran-4-yl)carbamoyl]-6-(propylthio)pyridin-2-yl}piperidin-3-yl]acetic acid], the inhibition at 30 µM rises from 88% to 92%.

Going from `CCCSc1nc(N2CCC[C@@H](CC(=O)O)C2)ccc1C(=O)N(C)[C@H]1C2CC3CC1C[C@](OC)(C3)C2` [Example 170, [(3S)-1-[5-[((2r,5s)-5-Methoxyadamantan-2-yl)(methyl)carbamoyl]-6-(propylthio)pyridin-2-yl]piperidin-3-yl]acetic acid] to `CCCSc1nc(N2CCC[C@@H](CC(=O)O)C2)ccc1C(=O)NC12CC3CC(CC(C3)C1)C2` [Example 172, {(3S)-1-[5-(Adamantan-1-ylcarbamoyl)-6-(Propylthio)pyridin-2-yl]piperidin-3-yl}acetic acid], the inhibition at 30 µM falls from 92% to 88%.

Compared with `CC(=O)N1CCN(c2nc(N3CCC[C@@H](CC(=O)O)C3)ccc2C(=O)NC2CCCCC2)CC1` [compound 147, 2-[(3S)-1-[6-(4-acetylpiperazin-1-yl)-5-(cyclohexylcarbamoyl)pyridin-2-yl]-3-piperidyl]acetic acid], `CCS(=O)(=O)N1CCN(c2nc(N3CCC[C@@H](CC(=O)O)C3)ccc2C(=O)NC2CCCCC2)CC1` [compound 148, 2-[(3S)-1-[5-(cyclohexyl-carbamoyl)-6-(4-ethylsulfonyl-piperazin-1-yl)pyridin-2-yl]-3-piperidyl]acetic acid] is lower in inhibition at 30 µM: 86% for the first, 56% for the second.

First: CCCSc1nc(N2CCC[C@@H](CC(=O)O)C2)ccc1C(=O)N1CCC(c2cccnc2)C1 (stereo partly drawn) [Example 113, 2-[(3S)-1-[6-propylsulfanyl-5-(3-pyridin-3-ylpyrrolidine-1-carbonyl)pyridin-2-yl]-3-piperidyl]acetic acid]
Second: CCCSc1nc(N2CCC[C@@H](CC(=O)O)C2)ccc1C(=O)N1CCC(C(F)(F)F)CC1 [Example 119, 2-[(3S)-1-[6-propylsulfanyl-5-[4-(trilfuoromethyl)piperidine-1-carbonyl]pyridin-2-yl]-3-piperidyl]acetic acid]
The inhibition at 30 µM of the first is lower: 90% for the first, 99% for the second.

First: CCCSc1nc(N2CCC[C@@H](CC(=O)O)C2)c(F)cc1C(=O)NC1CCCCC1 [Example 186, (S)-2-(1-(5-(Cyclohexylcarbamoyl)-3-fluoro-6-(propylthio)pyridin-2-yl)piperidin-3-yl)acetic acid]
Second: O=C(O)C[C@@H]1CCCN(c2ccc(C(=O)NC3CCCCC3)c(N3CCCCC3)n2)C1 [compound 141, 2-[(3S)-1-[5-(cyclohexylcarbamoyl)-6-(1-piperidyl)pyridin-2-yl]-3-piperidyl]acetic acid]
The inhibition at 30 µM of the first is higher: 104% for the first, 96% for the second.

Going from `CSc1nc(N2CC[C@H](CC(=O)O)C2)ccc1C(=O)NC1C2CC3CC(C2)CC1C3` (stereo partly drawn) [Example 76, 2-[(3R)-1-[5-(2-adamantylcarbamoyl)-6-methylsulfanyl-pyridin-2-yl]pyrrolidin-3-yl]acetic acid] to `CSc1nc(N2CC[C@@H](C(=O)O)C2)ccc1C(=O)NC1C2CC3CC(C2)CC1C3` (stereo partly drawn) [Example 77, (3R)-1-[5-(2-adamantylcarbamoyl)-6-methylsulfanyl-pyridin-2-yl]pyrrolidine-3-carboxylic acid], the inhibition at 30 µM rises from 87% to 99%.

First: CCCNc1nc(N2CCC[C@@H](CC(=O)O)C2)ccc1C(=O)N(C)C1CCCCC1 [compound 157, 2-[(3S)-1-[5-(cyclohexyl-methyl-carbamoyl)-6-propylamino-pyridin-2-yl]-3-piperidyl]acetic acid]
Second: O=C(O)C[C@@H]1CCCN(c2ccc(C(=O)NC3CCCCC3)c(N3CCC(c4ccc(F)cc4)C3)n2)C1 (stereo partly drawn) [compound 143, 2-[(3S)-1-[5-(cyclohexylcarbamoyl)-6-[3-(4-fluorophenyl)pyrrolidin-1-yl]pyridin-2-yl]-3-piperidyl]acetic acid]
The inhibition at 30 µM of the first is lower: 91% for the first, 95% for the second.
